According to patent US20200113954A1, “PHARMACEUTICAL AND FOOD COMPOSITION FOR THE TREATMENT OF VAGINAL AND INTESTINAL DYSBIOSIS” (priority 2018, published 2020):

Test system: vulvovaginal candidiasis
Assay: Third pilot study: open-label, Microbio+ capsules vs topical clotrimazole in women with uncomplicated vulvovaginal candidiasis
Assay type: in vivo, human
Source text: Study of the Effect of Microbio+ CAPSULES in Woman with Uncomplicated Vulvovaginal Candidiasis.
The primary endpoints are:
reduction in frequency of recurrences
re-equilibrium of the vaginal microflora (through assessment of clinical signs and Lactobacillus grade) in women with uncomplicated vulvovaginal candidiasis.
CLOTRIMAZOLE group: single administration of topical antifungal treatment with no maintenance cycle
Group B: Microbio+ for 15 consecutive days and maintenance cycle of 5 days a month in premenstrual phase for 3 months
Uncomplicated Vulvovaginal candidiasis;
Microscopic diagnosis of vulvovaginal candidiasis through wet mount or vaginal culture;
Not menopausal (defined as 12 or more months since last menstrual cycle at appropriate age);
The total study duration is 12 weeks.
Diagnosis (V0) and start of treatment
Day 15, day 30 and day 90 visits (V1, 2 and 3): At each visit, the patient was asked if they had taken the treatment regularly and if they had experienced any clinical symptoms or adverse events. A clinical examination, microscopic wet mount examination or (if available) cultural examination were performed to establish the effect of the treatment and the lactobacillus grade.
Primary outcomes: • Evaluation of the efficacy of Microbio+ in women with acute VVC: • 1. Clinical cure rate (resolution of symptoms) of VVC at 15, 30 and 90 days; • 2. Microbiological and microscopic cure of VVC (negative vaginal culture or absence of hyphae at wet mount); • 3. Recurrence rate (defined as the presence of symptoms or positive fungal culture or presence of hyphae at wet mount) in 3-month follow-up period.
Secondary outcomes: • Safety and tolerability of Microbio+ in adult women.

[1] = at 15 and 30 days, 20 patients per arm
[2] = within the 3 months of follow-up, 20 patients per arm

Clc1ccccc1C(c1ccccc1)(c1ccccc1)n1ccnc1 [clotrimazole, Clotrimazole]
clinical and microbiological cure in 1 month (1 month, FIG. 6 summary): 80%
clinical and microbiological cure, number of women [1]: 16 women
clinical and microbiological cure, percent of women [1]: 80%
symptomatic recurrences (symptom recurrence rate), percent of women [2]: 40%
symptomatic recurrences, number of women [2]: 8 women
